# Results reported in publication PMC8456852 (Clinical Pharmacology in Drug Development, 2021).
# How the values were obtained:
# [1] = cited from earlier work; for Maximum concentration: studied as individual components, abacavir 600 mg and lamivudine 300 mg
# [2] = clinical; conditions: human, in vivo, po
# [3] = for Geometric mean area under the concentration‐time curve: AUC type not specified; for CL/F (apparent clearance): Overall (N = 12), healthy Japanese, arithmetic mean (SD); for AUC0‐∞, healthy Japanese (this study) vs ING114580 / Maximum concentration, healthy Japanese (this study) vs ING114580: greater in healthy Japanese participants
# [4] = test system: uridine diphosphate glucuronosyltransferase family 1 member A1 (UGT1A1); conditions: cited from earlier work
# [5] = test system: adenosine triphosphate–binding cassette subfamily G transport protein (ABCG2); conditions: cited from earlier work
# [6] = cited from earlier work
# [7] = N = 12 healthy Japanese, single oral dose, fasted
# [8] = dolutegravir twice‐daily dosing
smiles,measurement,setting,value
"Nc1nc(NC2CC2)c2ncn([C@H]3C=C[C@@H](CO)C3)c2n1 [Abacavir, abacavir]",Maximum concentration,[1],4.26 ± 1.19 µg/mL
same,Cmax,[2]; both,5.38 µg/mL
same,Tmax,[2]; both,1.01 h
same,concentration at 24 h,[2]; both,0.00675 µg/mL
same,half-life,[2]; both,2.84 h
same,CL/F,[2]; female,0.63 L/h/kg
same,Cmax,[2]; female,5.77 µg/mL
same,Tmax,[2]; female,1.51 h
same,concentration at 24 h,[2]; female,0.0066 µg/mL
same,half-life,[2]; female,2.87 h
same,CL/F,[2]; male,0.54 L/h/kg
same,Cmax,[2]; male,4.6 µg/mL
same,Tmax,[2]; male,0.99 h
same,concentration at 24 h,[2]; male,0.0071 µg/mL
same,half-life,[2]; male,2.77 h
same,Geometric mean CL/F,[3]; [7],32.9 L/h
same,Geometric mean maximum plasma concentration,[3]; [7],5.22 µg/mL
same,Geometric mean area under the concentration‐time curve,[3]; [7],18.20 µg·h/mL
same,CL/F (apparent clearance),"[3]; single oral dose, fasted",33.7 (8.54) L/h
same,"AUC0‐∞, healthy Japanese (this study) vs ING114580",[3],≈ 1.3 fold
same,"Maximum concentration, healthy Japanese (this study) vs ING114580",[3],1.3 fold
"C[C@@H]1CCO[C@H]2Cn3cc(C(=O)NCc4ccc(F)cc4F)c(=O)c(O)c3C(=O)N12 [Dolutegravir, dolutegravir]",Cmax (geometric mean),[1]; [8],4.15 µg/mL
same,Geometric mean AUC from time 0 to 24 hours,[1]; [8],75.10 µg·h/mL
same,Increase in dolutegravir exposure with atazanavir (UGT1A1 inhibitor),[1]; once‐daily dosing with atazanavir,≈ 2 fold
same,Substrate of UGT1A1,[4],substrate
same,Cmax,[2]; both,4.21 µg/mL
same,Tmax,[2]; both,3.5 h
same,concentration at 24 h,[2]; both,1.15 µg/mL
same,CL/F,[2]; female,0.01 L/h/kg
same,Cmax,[2]; female,4.45 µg/mL
same,Tmax,[2]; female,2.98 h
same,concentration at 24 h,[2]; female,1.13 µg/mL
same,half-life,[2]; female,13.7 h
same,CL/F,[2]; male,0.01 L/h/kg
same,Cmax,[2]; male,3.75 µg/mL
same,Tmax,[2]; male,4 h
same,concentration at 24 h,[2]; male,1.18 µg/mL
same,half-life,[2]; male,14.6 h
same,Exposure (geometric mean AUC0‐∞) of dolutegravir vs abacavir and lamivudine,[3]; [7],≈ 4 times
same,Geometric mean CL/F,[3]; [7],0.678 L/h
same,Geometric mean maximum plasma concentration,[3]; [7],4.13 µg/mL
same,tmax relative to abacavir (times more slowly),[3]; [7],3 times
same,Geometric mean area under the concentration‐time curve,[3]; [7],71.60 µg·h/mL
same,CL/F (apparent clearance),"[3]; single oral dose, fasted",0.691 (0.145) L/h
same,"Exposure, this study vs ING115381",[3]; higher than in healthy Japanese participants given dolutegravir 50 mg alone,1.9 fold
same,Substrate of ABCG2,[5],substrate
same,Exposure in individuals with ABCG2 genetic variant 421AA,[6],demonstrably higher
same,Exposure increase in UGT1A*6 heterozygous individuals,[6]; evaluation of 9 phase 1/2 clinical studies,≈ 1.4 fold
same,Total magnitude of change in exposure from body weight,[6]; population PK models,< 30%
same,"Oral bioavailability, higher in women than men",[6]; population PK,≈ 21%
"Nc1ccn([C@@H]2CS[C@H](CO)O2)c(=O)n1 [Lamivudine, lamivudine]",Maximum concentration,[1],2.04 ± 0.54 µg/mL
same,Cmax,[2]; both,3.43 µg/mL
same,Tmax,[2]; both,2.98 h
same,concentration at 24 h,[2]; both,0.0387 µg/mL
same,Cmax,[2]; female,3.65 µg/mL
same,Tmax,[2]; female,2.98 h
same,concentration at 24 h,[2]; female,0.0326 µg/mL
same,Cmax,[2]; male,2.98 µg/mL
same,Tmax,[2]; male,2.5 h
same,concentration at 24 h,[2]; male,0.0509 µg/mL
same,Geometric mean maximum plasma concentration,[3]; [7],3.35 µg/mL
same,tmax relative to abacavir (times more slowly),[3]; [7],3 times
same,Geometric mean area under the concentration‐time curve,[3]; [7],16.60 µg·h/mL
same,"AUC0‐∞, healthy Japanese (this study) vs ING114580",[3],≈ 1.3 fold
same,"Maximum concentration, healthy Japanese (this study) vs ING114580",[3],1.6 fold
same,"Median tmax, this study vs EPZ104807",[3]; higher than previously reported in Japanese participants (abacavir/lamivudine formulation),1.5 fold
